According to ChEMBL document CHEMBL1201862, “PubChem BioAssay data set” (2004):
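These data come from cells grown in 96-well plates and exposed to compound for 48 hours at five concentrations. At the GI50, growth is halved.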 Active and inactive are the calls of the source. Cut-off read from the data, not from the text of the source: active = GI50 up to about 1.1 µM and inactive = higher.

Assays:
Test in all cases: NCI tumour cell line growth inhibition, 48 h
ACHN = system: ACHN
CAKI-1 = system: CAKI-1
COLO 205 = system: COLO 205
HL-60 = system: HL-60
HOP-62 = system: HOP-62
M14 = system: M14
NCI-H23 = system: NCI-H23
NCI-H522 = system: NCI-H522
RPMI-8226 = system: RPMI-8226
SF-268 = system: SF-268
SF-295 = system: SF-295
SF-539 = system: SF-539
SK-MEL-5 = system: SK-MEL-5
SW-620 = system: SW-620
UACC-257 = system: UACC-257
LOX IMVI = system: LOX IMVI
NCI-H226 = system: NCI-H226

Measured: GI50

C[N+](C)(C)CC(=O)N/N=C(/Cc1cc(=O)oc2cc(O)ccc12)C(=O)Nc1ccc(Cl)cc1
inactive: ACHN > 100 µM | CAKI-1 > 100 µM | COLO 205 > 100 µM | HL-60 > 100 µM | HOP-62 > 100 µM | M14 > 100 µM | NCI-H23 > 100 µM | NCI-H522 > 100 µM | RPMI-8226 > 100 µM | SF-268 > 100 µM | SF-295 > 100 µM | SF-539 > 100 µM | SK-MEL-5 > 100 µM | SW-620 > 100 µM | UACC-257 > 100 µM

CC(C)N(C(=O)C12C3C4C1C1C2C3C41C(O)C(C)(C)C)C(C)C (stereo not drawn)
inactive: ACHN > 50 µM | CAKI-1 > 50 µM | COLO 205 > 50 µM | HL-60 > 50 µM | HOP-62 > 50 µM | M14 > 50 µM | NCI-H522 > 50 µM | SF-268 > 50 µM | SF-295 > 50 µM | SF-539 > 50 µM | SK-MEL-5 > 50 µM | SW-620 > 50 µM

O=C(Cn1cc(I)c(C(=O)NCC(O)CO)n1)NCC(O)CO (stereo not drawn)
inactive: ACHN > 100 µM | COLO 205 > 100 µM | HL-60 > 100 µM | HOP-62 > 100 µM | LOX IMVI > 100 µM | M14 > 100 µM | NCI-H226 > 100 µM | NCI-H23 > 100 µM | NCI-H522 > 100 µM | RPMI-8226 > 100 µM | SF-268 > 100 µM | SF-295 > 100 µM | SF-539 > 100 µM | SW-620 > 100 µM | UACC-257 > 100 µM

CC(C)(C)c1cc(C(=O)O)c(C(c2ccccc2)c2ccccc2C(=O)O)c(C(=O)O)c1 (stereo not drawn)
inactive: ACHN 20.7 µM | CAKI-1 > 100 µM | COLO 205 33.8 µM | HL-60 > 100 µM | HOP-62 > 100 µM | LOX IMVI > 100 µM | M14 > 100 µM | NCI-H226 35 µM | NCI-H23 > 100 µM | NCI-H522 2.52 µM | SF-268 > 100 µM | SF-295 > 100 µM | SF-539 > 100 µM | SW-620 > 100 µM | UACC-257 > 100 µM

CCc1cccc(C)c1N1C(=O)C(=O)C(c2nc3ccccc3o2)C(=O)C1=O
inactive: ACHN > 100 µM | CAKI-1 > 100 µM | COLO 205 > 100 µM | HL-60 > 100 µM | HOP-62 > 100 µM | M14 > 100 µM | NCI-H226 > 100 µM | NCI-H23 > 100 µM | NCI-H522 > 100 µM | RPMI-8226 > 100 µM | SF-268 > 100 µM | SF-295 > 100 µM | SF-539 > 100 µM | SK-MEL-5 > 100 µM | SW-620 > 100 µM | UACC-257 > 100 µM

CN/N=C(\C)c1c(O)cc(C)oc1=O
inactive: ACHN > 100 µM | CAKI-1 > 100 µM | HL-60 > 100 µM | HOP-62 > 100 µM | LOX IMVI > 100 µM | M14 > 100 µM | NCI-H226 > 100 µM | NCI-H23 > 100 µM | NCI-H522 > 100 µM | SF-268 > 100 µM | SF-295 > 100 µM | SF-539 > 100 µM | SW-620 > 100 µM | UACC-257 > 100 µM

CC(C)NCCNC(=O)c1ccccc1Nc1c(Cl)cccc1Cl
inactive: ACHN 17.4 µM | COLO 205 11.6 µM | HL-60 8.71 µM | HOP-62 11.6 µM | LOX IMVI 7.24 µM | M14 11.5 µM | NCI-H226 13.5 µM | NCI-H23 17.7 µM | RPMI-8226 3.81 µM | SF-268 18.1 µM | SF-295 15.2 µM | SF-539 15.8 µM | SK-MEL-5 5.04 µM | SW-620 15.5 µM | UACC-257 10.3 µM

O=C(/C=C\c1cccc2ccccc12)c1ccc(F)cc1
inactive: ACHN 17 µM | CAKI-1 17.3 µM | COLO 205 19 µM | HL-60 20.6 µM | HOP-62 69.8 µM | M14 16.2 µM | NCI-H226 35.9 µM | NCI-H23 20 µM | NCI-H522 20.5 µM | RPMI-8226 4.21 µM | SF-268 15 µM | SF-295 19.3 µM | SF-539 21.5 µM | SK-MEL-5 17.8 µM | SW-620 7.52 µM | UACC-257 17.6 µM

O=C(O)CCN(CCCN(CCC(=O)O)CCC(=O)O)CCC(=O)O
inactive: ACHN > 100 µM | CAKI-1 > 100 µM | COLO 205 > 100 µM | HL-60 > 100 µM | HOP-62 > 100 µM | LOX IMVI > 100 µM | M14 > 100 µM | NCI-H23 > 100 µM | NCI-H522 > 100 µM | RPMI-8226 > 100 µM | SF-268 > 100 µM | SF-295 > 100 µM | SF-539 > 100 µM | SK-MEL-5 > 100 µM | SW-620 > 100 µM

C[Si](C)(C)CN1C(=O)c2ccccc2C1(O)c1ccccc1 (stereo not drawn)
inactive: ACHN 56.1 µM | CAKI-1 46.1 µM | COLO 205 92.7 µM | HL-60 40.7 µM | HOP-62 > 100 µM | LOX IMVI 49.4 µM | M14 > 100 µM | NCI-H226 > 100 µM | NCI-H23 50.6 µM | NCI-H522 33.5 µM | SF-268 98.4 µM | SF-295 64.4 µM | SF-539 > 100 µM | SK-MEL-5 46.6 µM | SW-620 > 100 µM | UACC-257 57.3 µM

N#C/C(N)=N/c1ccccc1
inactive: ACHN > 100 µM | CAKI-1 > 100 µM | COLO 205 > 100 µM | HL-60 > 100 µM | HOP-62 > 100 µM | LOX IMVI 68.7 µM | M14 > 100 µM | NCI-H226 > 100 µM | NCI-H23 > 100 µM | NCI-H522 > 100 µM | RPMI-8226 > 100 µM | SF-268 > 100 µM | SF-295 > 100 µM | SF-539 > 100 µM | SK-MEL-5 > 100 µM | SW-620 > 100 µM

CCCN/C(N)=N/C#N
inactive: ACHN > 100 µM | CAKI-1 > 100 µM | COLO 205 18 µM | HL-60 > 100 µM | HOP-62 > 100 µM | M14 > 100 µM | NCI-H226 > 100 µM | NCI-H23 > 100 µM | NCI-H522 > 100 µM | RPMI-8226 > 100 µM | SF-268 44.2 µM | SF-295 > 100 µM | SF-539 > 100 µM | SK-MEL-5 > 100 µM | SW-620 13.6 µM | UACC-257 > 100 µM

CC(=O)c1ccc(NC(=O)COC(=O)c2cccc3c(=O)c4ccccc4[nH]c23)cc1
inactive: ACHN 27.8 µM | CAKI-1 > 100 µM | COLO 205 33.6 µM | HL-60 > 100 µM | HOP-62 31.5 µM | LOX IMVI 13.4 µM | M14 31.4 µM | NCI-H226 19.4 µM | NCI-H23 18.6 µM | NCI-H522 72.6 µM | SF-268 20.5 µM | SF-295 15.8 µM | SF-539 8.91 µM | SK-MEL-5 29.4 µM | SW-620 52.8 µM | UACC-257 57.7 µM

COC(=O)C(=O)C1(CCC(C)=O)c2ccccc2-c2c(C)ccc(C)c21 (stereo not drawn)
inactive: ACHN 46.7 µM | CAKI-1 31.4 µM | COLO 205 34.7 µM | HL-60 10.3 µM | HOP-62 53 µM | LOX IMVI 36.8 µM | M14 46.8 µM | NCI-H226 > 100 µM | NCI-H23 24.7 µM | NCI-H522 33.3 µM | RPMI-8226 26.2 µM | SF-268 52.2 µM | SF-295 81.7 µM | SK-MEL-5 25.5 µM | SW-620 48.4 µM | UACC-257 33 µM

COc1cccc(C=O)c1C(=O)c1cc(O)ccc1O
inactive: ACHN 17.6 µM | CAKI-1 23.7 µM | COLO 205 18.1 µM | HL-60 9.62 µM | HOP-62 > 100 µM | LOX IMVI 37.8 µM | M14 17.9 µM | NCI-H226 > 100 µM | NCI-H23 > 81.7 µM | NCI-H522 > 10 µM | SF-268 > 40 µM | SF-295 > 100 µM | SF-539 > 100 µM | SK-MEL-5 91.8 µM | SW-620 17.1 µM | UACC-257 20.1 µM

C=C1C(=O)c2cc3c(cc2C(c2cc(OC)c(OC)c(OC)c2)[C@@H]1C(=O)O)OCO3 (stereo partly drawn)
inactive: ACHN > 100 µM | CAKI-1 54.2 µM | COLO 205 39.3 µM | LOX IMVI 43.6 µM | M14 28.1 µM | NCI-H226 > 100 µM | NCI-H23 57.7 µM | NCI-H522 28.3 µM | RPMI-8226 39.3 µM | SF-295 38.3 µM | SF-539 63.7 µM | SK-MEL-5 50.7 µM | SW-620 53.2 µM | UACC-257 67 µM

CC12CC[C@H](O)C(C)(C)[C@H]1CC[C@](C)(O)C2COc1ccc2ccc(=O)oc2c1 (stereo partly drawn)
inactive: ACHN > 100 µM | COLO 205 > 100 µM | HL-60 53.1 µM | HOP-62 > 100 µM | LOX IMVI > 100 µM | M14 > 100 µM | NCI-H226 > 100 µM | NCI-H23 > 100 µM | NCI-H522 > 100 µM | RPMI-8226 99.1 µM | SF-268 > 100 µM | SF-295 > 100 µM | SF-539 > 100 µM | SW-620 > 100 µM | UACC-257 > 100 µM

Cc1ccc2[nH]c(Sc3c([N+](=O)[O-])ncn3C)nc2c1
inactive: ACHN 33 µM | CAKI-1 11.9 µM | COLO 205 13.3 µM | HOP-62 > 100 µM | LOX IMVI 34.3 µM | M14 17.6 µM | NCI-H226 12.8 µM | NCI-H23 18.6 µM | RPMI-8226 25.1 µM | SF-268 31.5 µM | SF-295 > 100 µM | SF-539 18.1 µM | SK-MEL-5 17.1 µM | SW-620 25.3 µM | UACC-257 12.6 µM
